Here are results for 25 molecules from the supplement of paper PMC12317010.

The nature of the data set: collision cross section in nitrogen (drift tube, single-field); higher = larger gas-phase ion size.
Where [1] appears, read: ion type: [M+H], ion source: APCI, ion mode: Positive.
Where [2] appears, read: ion type: [M+H], ion source: ESI, ion mode: Positive.
[3] abbreviates: ion type: [M+Na], ion source: ESI, ion mode: Positive.
Where [4] appears, read: ion type: [M-H], ion source: ESI, ion mode: Negative.

Structures are written as SMILES.
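Further: chemical standards at 10 µM analysed by drift tube IMS-QTOF MS in about 3.95 torr nitrogen, mean of duplicate injections differing ≤1%, mass error below 10 ppm.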

In the case of `c1ccc(C(O[C@@H]2CCCN(CCc3ccc4c(c3)OCO4)C2)c2ccccc2)cc1` [Zamifenacin], the “collision cross section in nitrogen” value is reported as 192.3 Å² under setting [1], 192.4 Å² under setting [2] and 195.9 Å² under setting [3].
In the case of `C[C@H]1CCCC(=O)CCC/C=C/c2cc(O)cc(O)c2C(=O)O1` [Zearalenone], the “collision cross section in nitrogen” value under setting [4] came to 177.5 Å².
`O=C(O)Cn1c(=O)n(Cc2ccc(Br)cc2F)c(=O)c2ccc(Cl)cc21` [Zenarestat]: the “collision cross section in nitrogen” value under setting [4] is given as 188.9 Å².
As to `CC(c1cc2ccccc2s1)N(O)C(N)=O` (stereo unspecified) [Zileuton], the “collision cross section in nitrogen” value under setting [3] is recorded as 156.4 Å².
For the molecule `CCC(C)(NC(=O)c1cc(Cl)c(C)c(Cl)c1)C(=O)CCl` (stereo unspecified) [Zoxamide], the “collision cross section in nitrogen” value reads like this: under setting [2], 175.9 Å²; under setting [3], 188 Å².
`N#CCc1cccc(C(F)(F)F)c1` [[3-(Trifluoromethyl)phenyl]acetonitrile]: the “collision cross section in nitrogen” value under setting [4] worked out at 129.1 Å².
Regarding `Cc1cccc(Nc2cc(Cl)nc(SCC(=O)O)n2)c1C` [[4-Chloro-6-(2,3-xylidino)-2-pyrimidinylthio]acetic acid], the “collision cross section in nitrogen” value runs as follows: under setting [1], 175.6 Å²; under setting [2], 175.5 Å²; under setting [3], 178.2 Å²; under setting [4], 171 Å².
For the molecule `OC[C@H]1O[C@@H]2O[C@H]3[C@H](O)[C@@H](O)[C@@H](O[C@H]4[C@H](O)[C@@H](O)[C@@H](O[C@H]5[C@H](O)[C@@H](O)[C@@H](O[C@H]6[C@H](O)[C@@H](O)[C@@H](O[C@H]7[C@H](O)[C@@H](O)[C@@H](O[C@H]1[C@H](O)[C@H]2O)O[C@@H]7CO)O[C@@H]6CO)O[C@@H]5CO)O[C@@H]4CO)O[C@@H]3CO` [alpha-Cyclodextrin], the “collision cross section in nitrogen” value came to 277.8 Å² under setting [2], 278.5 Å² under setting [3] and 286.4 Å² under setting [4].
For the molecule `O=c1cc(-c2ccccc2)oc2c1ccc1ccccc12` [alpha-Naphthoflavone], the “collision cross section in nitrogen” value by setting is: under setting [1], 161.7 Å²; under setting [2], 160.7 Å²; under setting [3], 185.7 Å².
`c1csc(-c2ccc(-c3cccs3)s2)c1` [alpha-Terthiophene]: the “collision cross section in nitrogen” value (ion type: [M+], ion source: APCI, ion mode: Positive) is listed as 146.4 Å².
On to `O=C1NC(=O)[C@@H]2CC=CC[C@H]12` [cis-1,2,3,6-Tetrahydrophthalimide], for which the “collision cross section in nitrogen” value under setting [4] came to 133 Å².
Turning to `N[C@H](Cc1c[nH]c2ccccc12)C(=O)O` [d-Tryptophan], the “collision cross section in nitrogen” value under setting [4] worked out at 151.5 Å².
As for `OC[C@H]1O[C@@H]2O[C@H]3[C@H](O)[C@@H](O)[C@@H](O[C@H]4[C@H](O)[C@@H](O)[C@@H](O[C@H]5[C@H](O)[C@@H](O)[C@@H](O[C@H]6[C@H](O)[C@@H](O)[C@@H](O[C@H]7[C@H](O)[C@@H](O)[C@@H](O[C@H]8[C@H](O)[C@@H](O)[C@@H](O[C@H]9[C@H](O)[C@@H](O)[C@@H](O[C@H]1[C@H](O)[C@H]2O)O[C@@H]9CO)O[C@@H]8CO)O[C@@H]7CO)O[C@@H]6CO)O[C@@H]5CO)O[C@@H]4CO)O[C@@H]3CO` [gamma-Cyclodextrin], the “collision cross section in nitrogen” value stood at 318.1 Å² under setting [3] and 314.1 Å² under setting [4].
For the molecule `N[C@@H](Cc1c[nH]c2ccccc12)C(=O)O` [l-Tryptophan], the “collision cross section in nitrogen” value under setting [4] came out at 151.6 Å².
Consider `CC1(C)[C@H](/C=C(\Cl)C(F)(F)F)[C@@H]1C(=O)O[C@@H](C#N)c1cccc(Oc2ccccc2)c1` [lambda-Cyhalothrin], for which the “collision cross section in nitrogen” value under setting [3] is given as 190.4 Å².
As for `CCCCCOC(=O)CCCCC` [n-Amyl caproate], the “collision cross section in nitrogen” value under setting [4] was 151.6 Å².
For `CCCCCCCCCCCCc1ccccc1O` [n-Dodecylphenol], under setting [4], the “collision cross section in nitrogen” value came to 173.8 Å².
As to `Cc1cc(N=Nc2ccccc2C)ccc1N` [o-Aminoazotoluene], the “collision cross section in nitrogen” value under setting [1] is 155.9 Å², the “collision cross section in nitrogen” value under setting [2] is given as 156 Å² and the “collision cross section in nitrogen” value under setting [4] turned out to be 157.3 Å².
Consider `Cc1ccccc1O` [o-Cresol], for which the “collision cross section in nitrogen” value under setting [4] amounted to 120.4 Å².
For the molecule `COc1ccc(N)cc1` [p-Anisidinium chloride], the “collision cross section in nitrogen” value under setting [2] came out at 133.2 Å².
On to `Cc1cc(C2(c3cc(C)c(O)cc3C)OS(=O)(=O)c3ccccc32)c(C)cc1O` [p-Xylenol blue], for which the “collision cross section in nitrogen” value was found to be 194.4 Å² under setting [1], 194.5 Å² under setting [2], 200.6 Å² under setting [3] and 198 Å² under setting [4].
Take `CCC(C)OC(=O)c1ccc(O)cc1` (stereo unspecified) [sec-Butylparaben]: the “collision cross section in nitrogen” value under setting [4] is 148.4 Å².
Still for that read-out and setting: as for `CC(C)(C)OC(=O)c1ccc(O)cc1` [tert-Butyl 4-hydroxybenzoate], the figure is 148.2 Å²; as for `CC(C)(C)OC(=O)c1ccccc1C(=O)O` [tert-Butyl hydrogen phthalate], 151.6 Å².
On to `CCCCCCCC/C=C/CCCCCCCC(=O)OCC(O)CO` (stereo not drawn) [trans-Monoelaidin], for which the “collision cross section in nitrogen” value under setting [3] came to 199 Å².
